# Experimental data published in PMC8165439, “Chymase Dependent Pathway of Angiotensin II Generation and Rapeseed Derived Peptides for Antihypertensive Treatment of Spontaneously Hypertensive Rats” (Frontiers in Pharmacology, 2021).
# Where a SMILES comes first, the peptide text is derived from it. Where no end group is shown, it is not given here.
# Experiments:
# adult SHR = conditions: tail cuff method, ref Kirimura et al. (2005); cited from earlier work
# Text: [Kirimura et al. (2005)], studied NK3201, another chymase inhibitor. […] However, the study by [Kirimura et al. (2005)], in addition to the obvious difference in the protocol (single oral dose vs. our chronic intravenous infusion) has another limitation: the tail cuff method was used to measure blood pressure.
# ACE = conditions: ref Marczak et al. (2003); cited from earlier work
# [1] = tested on: spontaneously hypertensive rats (SHR); experiment: Plasma and urine parameters during chronic treatment; type: in vivo, rat; conditions: mean ± SEM
# Protocol: (§1) Systolic and diastolic blood pressure (SBP and DBP, respectively) and heart rate (HR) were measured in conscious unrestrained rats by telemetry technique, once a week for 24 h. 24 hour observations in metabolic cages (Tecniplast S. p.A. Buguggiate, Italy) were performed weekly. The diuresis, weight of feces, food and water intake were measured; urine and blood samples were collected on day 0, 7th and 14th, and were centrifuged at 1200 g (blood for 15 min and urine for 5 min), then the samples were stored at –80°C until analysis.
# (§2) On day 0 all animals received saline (0.9% NaCl) and then, for 14 consecutive days, the substance tested. Chymostatin (CH, 2 mg/kg/day) was dissolved in DMSO and then diluted with PBS (final concentration of DMSO was 0.15%). Peptides RIY (7.5 mg/kg/day) and VWIS (12.5 mg/kg/day) were dissolved in saline (0.9% NaCl, S). The substances were administered through the femoral vein during 10 min in the volume of 0.5 ml to young SHR (infusion rate: 3 ml/h) and 1 ml to adult rats (infusion rate: 6 ml/h). Control rats received solvents (either DMSO or saline) in the same volume.
# (§3) Urine volume was determined by gravimetric method. Sodium and potassium concentration in urine and plasma were measured by flame photometry (PFP7/C, Jenway Ltd, Stone, United Kingdom). Urine and plasma osmolality were measured by freezing point depression (Osmomat® 030 M, Gonotec, Berlin, Germany). These parameters were used to determine the excretion rates of total solutes (UosmV), sodium (UNaV) and potassium (UKV). Commercially available ELISA kits were used to measure nitric oxide metabolites (NOx, SunRed, Shanghai) and albumin (Albumin, ICL, Portland) concentration in urine. Excretion rate of NOx (UNOxV) and albumin (UAE) were calculated.
# [2] = tested on: spontaneously hypertensive rats (SHR); experiment: Metabolic parameters in metabolic cages during chronic treatment; type: in vivo, rat; conditions: mean ± SEM
# Protocol: as §1, §2, §3
# Human chymase = biological target: T1, Human chymase (Homo sapiens, UniProt P23946); conditions: pH 7.8
# T1 sequence (P23946 22-247): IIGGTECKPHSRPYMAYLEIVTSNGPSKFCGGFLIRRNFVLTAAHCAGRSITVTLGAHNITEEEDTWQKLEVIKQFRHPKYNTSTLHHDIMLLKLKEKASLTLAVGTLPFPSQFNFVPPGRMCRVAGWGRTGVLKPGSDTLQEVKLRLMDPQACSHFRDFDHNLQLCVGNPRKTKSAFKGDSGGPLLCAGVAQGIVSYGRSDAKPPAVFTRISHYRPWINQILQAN
# Protocol: Chymase digestion of ANG I in the presence of synthetized peptides was performed in vitro. The concentration of remaining ANG I was calculated in order to assess the ability of peptides to inhibit chymase.
# Human chymase (72 units/mg protein; 259 µg protein/ml, vial volume 187 μl, Sigma) stock solution was prepared by diluting the initial sample of enzyme with Tris*HCl buffer (0.27 mM Tris*HCl, pH 7.8 and 150 mM NaCl) to obtain the final chymase concentration of 1.379 μg/ml.
# Reactions (during which ANG I was converted to ANG II through removal of two C-terminal residues) were stopped at the desired times (0, 10, 20, 30, 40, 60, 80 min) by addition of 10 μl of 98% FA. […] Positive electrospray (ES+) was used as the ionization method for mass spectrometry.
# The inhibitory effect of each peptide on chymase activity was expressed as remaining amount of substrate vs. time of digestion and presented as percentage ratio and calculated by the following formula [ANG It=X min/ANG It=0 min]x100% where ANG It=X min is the peak area of angiotensin I at desired time of digestion, ANG It=0 min is the peak area of angiotensin I at 0 min of digestion.
# [3] = adult SHR (SHR-16), day 0 (baseline)
# [4] = adult SHR (SHR-16), day 7 of daily iv CH 2, RIY 7.5, VWIS 12.5 mg/kg/day
# [5] = adult SHR (SHR-16), day 7 of daily iv treatment
# [6] = adult SHR (SHR-16), day 14 of daily iv CH 2, RIY 7.5, VWIS 12.5 mg/kg/day
# [7] = adult SHR (SHR-16), day 14 of daily iv treatment
# [8] = young SHR (SHR-6), day 0 (baseline), CH n=8-10, RIY n=5, VWIS n=5-6
# [9] = young SHR (SHR-6), day 0 (baseline)
# [10] = young SHR (SHR-6), day 7 of daily iv CH 2, RIY 7.5, VWIS 12.5 mg/kg/day
# [11] = young SHR (SHR-6), day 7 of daily iv treatment
# [12] = young SHR (SHR-6), day 14 of daily iv CH 2, RIY 7.5, VWIS 12.5 mg/kg/day
# [13] = young SHR (SHR-6), day 14 of daily iv treatment
molecule,measurement,setting,value
O=CNc1cnc(-c2ccccc2)n(CC(=O)NC(Cc2ccccc2)C(=O)C(=O)CCCOc2ccccn2)c1=O (stereo not drawn) [NK3201],blood pressure after a single oral dose,adult SHR,did not lower blood pressure
"CC[C@H](C)[C@H](NC(=O)[C@H](Cc1c[nH]c2ccccc12)NC(=O)[C@@H](N)C(C)C)C(=O)N[C@@H](CO)C(=O)O [VWIS, Valine-Tryptophan-Isoleucine-Serine] (H-VWIS-OH)",stability / conversion to dipeptide in the presence of ACE,ACE,transformed rapidly to dipeptide VW
same,Plasma osmolality,"[1]; adult SHR (SHR-16), day 0 (baseline), CH n=5-8, RIY n=5-6, VWIS n=5-6",313±1 mOsm/l
same,Plasma K+ concentration,[1]; [3],4.20 ± 0.18 mmol/L
same,Plasma Na+ concentration,[1]; [3],133.0 ± 0.8 mmol/L
same,Potassium excretion,[1]; [3],0.97 ± 0.21 µmol/min
same,Sodium excretion,[1]; [3],0.90 ± 0.18 µmol/min
same,Total solute excretion,[1]; [3],7.52±1.54 µOsm/min
same,Plasma osmolality,[1]; [4],308±1 mOsm/l
same,Plasma K+ concentration,[1]; [5],3.78 ± 0.31 mmol/L
same,Plasma Na+ concentration,[1]; [5],130.2 ± 4.5 mmol/L
same,Potassium excretion,[1]; [5],1.26 ± 0.27 µmol/min
same,Sodium excretion,[1]; [5],1.02 ± 0.19 µmol/min
same,Total solute excretion,[1]; [5],9.90±2.21 µOsm/min
same,Plasma osmolality,[1]; [6],302±2 mOsm/l
same,Plasma K+ concentration,[1]; [7],3.96 ± 0.06 mmol/L
same,Plasma Na+ concentration,[1]; [7],135.8 ± 4.7 mmol/L
same,Potassium excretion,[1]; [7],0.95 ± 0.21 µmol/min
same,Sodium excretion,[1]; [7],0.81 ± 0.16 µmol/min
same,Total solute excretion,[1]; [7],10.42±2.06 µOsm/min
same,Plasma osmolality,[1]; [8],295±2 mOsm/l
same,Plasma K+ concentration,[1]; [9],4.42 ± 0.20 mmol/L
same,Plasma Na+ concentration,[1]; [9],131.8 ± 3.0 mmol/L
same,Potassium excretion,[1]; [9],0.73 ± 0.20 µmol/min
same,Sodium excretion,[1]; [9],0.69 ± 0.13 µmol/min
same,Total solute excretion,[1]; [9],5.48±1.40 µOsm/min
same,Plasma osmolality,[1]; [10],297±1 mOsm/l
same,Plasma K+ concentration,[1]; [11],4.45 ± 0.16 mmol/L
same,Plasma Na+ concentration,[1]; [11],133.40 ± 5.6 mmol/L
same,Potassium excretion,[1]; [11],1.75 ± 0.15 µmol/min
same,Sodium excretion,[1]; [11],0.84 ± 0.13 µmol/min
same,Total solute excretion,[1]; [11],7.11±0.95 µOsm/min
same,Plasma osmolality,[1]; [12],293±3 mOsm/l
same,Plasma K+ concentration,[1]; [13],4.33 ± 0.14 mmol/L
same,Plasma Na+ concentration,[1]; [13],131.4 ± 4.5 mmol/L
same,Potassium excretion,[1]; [13],0.72 ± 0.11 µmol/min
same,Sodium excretion,[1]; [13],0.63 ± 0.08 µmol/min
same,Total solute excretion,[1]; [13],7.16±0.75 µOsm/min
same,Body weight,"[2]; adult SHR (SHR-16), day 0 (baseline), CH n=8, RIY n=5-6, VWIS n=5-6",304 ± 8 g
same,Diuresis,[2]; [3],7.1 ± 1.4 µL/min
same,Faeces,[2]; [3],11±1 g/24 h
same,Food intake,[2]; [3],20±1 g/24 h
same,Water intake,[2]; [3],30±1 g/24 h
same,Body weight,[2]; [4],312 ± 11 g
same,Diuresis,[2]; [5],7.0 ± 1.3 µL/min
same,Faeces,[2]; [5],11±2 g/24 h
same,Food intake,[2]; [5],22±1 g/24 h
same,Water intake,[2]; [5],34±1 g/24 h
same,Body weight,[2]; [6],329 ± 11 g
same,Diuresis,[2]; [7],8.0 ± 1.8 µL/min
same,Faeces,[2]; [7],11±1 g/24 h
same,Food intake,[2]; [7],19±1 g/24 h
same,Water intake,[2]; [7],32±2 g/24 h
same,Body weight,[2]; [8],110 ± 11 g
same,Diuresis,[2]; [9],6.3 ± 0.8 µL/min
same,Faeces,[2]; [9],10±1 g/24 h
same,Food intake,[2]; [9],16±1 g/24 h
same,Water intake,[2]; [9],22±2 g/24 h
same,Body weight,[2]; [10],145 ± 13 g
same,Diuresis,[2]; [11],7.2 ± 0.7 µL/min
same,Faeces,[2]; [11],13±1 g/24 h
same,Food intake,[2]; [11],19±1 g/24 h
same,Water intake,[2]; [11],32±7 g/24 h
same,Body weight,[2]; [12],174 ± 13 g
same,Diuresis,[2]; [13],8.5 ± 0.8 µL/min
same,Faeces,[2]; [13],14±1 g/24 h
same,Food intake,[2]; [13],20±1 g/24 h
same,Water intake,[2]; [13],30±2 g/24 h
"DRVYIHPFHL [ANG I, angiotensin I]",half-life time of ANG I (T1/2) in human chymase solution in absence of inhibitory peptides,Human chymase,16 min
